Laboratory results from US20220016277A1, “MACROCYCLIC COMPLEXES OF RADIONUCLIDES AND THEIR USE IN RADIOTHERAPY OF CANCER” (Cornell University, priority 2018, published 2022).

What was measured:
[1] = Kinetic inertness of La^3+ complex of macropa: transchelation challenge; format: physicochemical; conditions: La^3+ complex of macropa formed in situ; 1000 equiv of DTPA; whole 21-day observation
Method: (§1) Kinetic Inertness of La^3+ and Lu^3+ Complexes of Macropa: Transchelation Challenge. A stock solution of ethylenediaminetetraacetic acid (EDTA, 100 mM) was made in MOPS buffer (prepared as described above) by adjusting the pH of the initial suspension to 6.6 using aqueous NMe4OH. A stock solution of diethylenetriaminepentaacetic acid (DTPA, 125 mM) was prepared in H2O by adjusting the pH to 7.4 as described for EDTA. This solution was serially diluted with H2O to yield 12.5 mM and 1.25 mM solutions of DTPA.
(§2) The preformed La^3+ and Lu^3+ complexes of macropa were challenged with EDTA. […] […]. Solutions were repeatedly analyzed by UV spectroscopy over the course of 21 days for any spectral changes. The final pH of each solution was between 7.18 and 7.25.
The complex formed in situ between La^3+ and macropa was more rigorously challenged with excess DTPA. A solution containing 500 μM of complex, prepared using the LaCl3 and macropa stock solutions described above, was left to equilibrate for 5 min. Subsequently, it was portioned into cuvettes and diluted with either 125 mM DTPA, 12.5 mM DTPA, 1.25 mM DTPA, or MOPS to yield solutions containing 1000-, 100-, 10-, or 0-fold excess DTPA and 100 μM concentration of macropa. These solutions were repeatedly analyzed by UV spectroscopy over the course of 21 days for any spectral changes. The final pH of each solution was between 7.11 and 7.42.

[2] = Kinetic inertness of Lu^3+ complex of macropa: transchelation challenge; format: physicochemical; conditions: Lu^3+ complex of macropa formed in situ; addition of 10 equiv of EDTA; pH 7.4
Method: as §1, §2

## O=C(O)c1cccc(CN2CCOCCOCCN(Cc3cccc(C(=O)O)n3)CCOCCOCC2)n1 [macropa, N,N′-bis[(6-carboxy-2-pyridil)methyl]-4,13-diaza-18-crown-6]
[1]
  time La^3+ complex remained intact: up to 21 days
[2]
  time until Lu^3+ ion was transchelated: ≤ 1 min
